Measured values published in patent US20240287046A1, “COMPOUNDS AND RADIOLIGANDS FOR TARGETING NEUROTENSIN RECEPTOR AND USES THEREOF” (Full-Life Technologies HK Limited, priority 2022, published 2024).

Key:
[1] = test system: ASPC-1 tumor-bearing mice; test: Biodistribution of radionuclide labeled complexes in ASPC-1 tumor-bearing mice; format: in vivo, BALB/c nude mice
Method in brief: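 Radiolabeled compound (~30-50 μCi, ~1.11-1.85 MBq, specific activity 30-250 μCi/nmol) was injected i.v. via tail vein into nude mice carrying 0.05-0.50 g subcutaneous NTSR-1-positive human tumors. At set times, tissues were collected, weighed and γ-counted; % ID and % ID/g were calculated.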

[2] = test system: HT-29 tumor-bearing mice; test: Biodistribution of radionuclide labeled complexes in HT-29 tumor-bearing mice; format: in vivo, BALB/c nude mice
Description: The BALB/c nude mice (Charles River, Beijing) were utilized to establish the xenografted model for biodistribution study. All animal care and experimental procedure were performed by following the animal protocols approved by the ethics committee of China Institute of Radiation Protection.
Briefly, each mouse was inoculated with approximately 4×10^6 ASPC-1 cells (human pancreatic cancer cell line) or HT-29 cells (human colorectal adenocarcinoma cell line) expressing human NTSR-1 by subcutaneous injection at rear flank. After inoculation, the xenografted tumors were allowed to grow for ˜2-4 weeks till the tumor weight reached to about 0.05 to 0.50 g (0.20 g in average).
Biodistribution studies were performed by administrating the radionuclide labeled test compound at a dose of ˜30-50 μCi (100 μL in 0.9% NaCl, ˜1.11-1.85 MBq, with specific activity 30-250 μCi/nmol) to each animal through tail vein injection.
At different time points after the administration, the mice treated with each compound were euthanized. The tissues and organs of the animals in each group were collected, excised, weighed, and analyzed in a PerkinElmer 2480 WIZARD2γ counter, and the percent injected dose (% ID) and % ID/g of each organ or tissue were calculated.

[3] = test system: ASPC-1 tumor-bearing mice; test: SPECT/CT imaging of ^177Lu-labeled complexes; format: in vivo; details: over 72 hours
Description: ASPC-1 tumor-bearing mice were IV-injected with about 120 μCi of ^177Lu-labeled complexes, then anesthetized under 2% isoflurane/oxygen gas and placed on the scanner. SPECT/CT images were acquired in three bed positions for 30 min using a MILabs SPECT scanner. Whole-body SPECT images were acquired at 1 h, 4 h, 24 and 72 h after injecting the radiotracers.

tumor AUC over 72 hours compared to ^177Lu—C2 [1]: significantly higher tumor AUC
% ID/g (4 h) Blood ([1]; Blood, 4 h): 15.51 ± 0.77 % ID/g
% ID/g (24 h) Blood ([1]; Blood, 24 h): 0.09 ± 0.01 % ID/g
% ID/g (72 h) Blood ([1]; Blood, 72 h): 0.02 ± 0 % ID/g
% ID/g (4 h) Femur ([1]; Femur, 4 h): 2.21 ± 0.63 % ID/g
% ID/g (24 h) Femur ([1]; Femur, 24 h): 0.38 ± 0.23 % ID/g
% ID/g (72 h) Femur ([1]; Femur, 72 h): 0.17 ± 0.09 % ID/g
% ID/g (4 h) Heart ([1]; Heart, 4 h): 2.82 ± 1.88 % ID/g
% ID/g (24 h) Heart ([1]; Heart, 24 h): 2.18 ± 2.71 % ID/g
% ID/g (72 h) Heart ([1]; Heart, 72 h): 0.15 ± 0.13 % ID/g
% ID/g (4 h) Intestine ([1]; Intestine, 4 h): 1.81 ± 0.87 % ID/g
% ID/g (24 h) Intestine ([1]; Intestine, 24 h): 0.82 ± 0.31 % ID/g
% ID/g (72 h) Intestine ([1]; Intestine, 72 h): 0.51 ± 0.04 % ID/g
% ID/g (4 h) Kidney ([1]; Kidney, 4 h): 4.57 ± 2.28 % ID/g
% ID/g (24 h) Kidney ([1]; Kidney, 24 h): 1.37 ± 0.17 % ID/g
% ID/g (72 h) Kidney ([1]; Kidney, 72 h): 1.29 ± 0.49 % ID/g
% ID/g (4 h) Liver ([1]; Liver, 4 h): 3.87 ± 2.36 % ID/g
% ID/g (24 h) Liver ([1]; Liver, 24 h): 1.27 ± 0.29 % ID/g
% ID/g (72 h) Liver ([1]; Liver, 72 h): 0.96 ± 0.07 % ID/g
% ID/g (4 h) Lung ([1]; Lung, 4 h): 1.841 ± 0.07 % ID/g
% ID/g (24 h) Lung ([1]; Lung, 24 h): 0.33 ± 0.06 % ID/g
% ID/g (72 h) Lung ([1]; Lung, 72 h): 0.23 ± 0.07 % ID/g
% ID/g (4 h) Muscle ([1]; Muscle, 4 h): 1.29 ± 0.37 % ID/g
% ID/g (24 h) Muscle ([1]; Muscle, 24 h): 0.17 ± 0.08 % ID/g
% ID/g (72 h) Muscle ([1]; Muscle, 72 h): 0.05 ± 0.01 % ID/g
% ID/g (4 h) Pancreas ([1]; Pancreas, 4 h): 1.57 ± 0.5 % ID/g
% ID/g (24 h) Pancreas ([1]; Pancreas, 24 h): 0.3 ± 0.24 % ID/g
% ID/g (72 h) Pancreas ([1]; Pancreas, 72 h): 0.1 ± 0.04 % ID/g
% ID/g (4 h) Spleen ([1]; Spleen, 4 h): 2.39 ± 1.4 % ID/g
% ID/g (24 h) Spleen ([1]; Spleen, 24 h): 0.63 ± 0.05 % ID/g
% ID/g (72 h) Spleen ([1]; Spleen, 72 h): 0.34 ± 0.04 % ID/g
% ID/g (4 h) Stomach ([1]; Stomach, 4 h): 3.52 ± 0.4 % ID/g
% ID/g (24 h) Stomach ([1]; Stomach, 24 h): 0.28 ± 0.2 % ID/g
% ID/g (72 h) Stomach ([1]; Stomach, 72 h): 0.15 ± 0.05 % ID/g
% ID/g (4 h) Tumor ([1]; Tumor, 4 h): 27.56 ± 12.51 % ID/g
% ID/g (24 h) Tumor ([1]; Tumor, 24 h): 36.67 ± 18.25 % ID/g
% ID/g (72 h) Tumor ([1]; Tumor, 72 h): 12.83 ± 4.23 % ID/g
ratio of tumor AUC verse normal organ AUC ([1]; compared to ^177Lu—C2): significantly improved
% ID/g (1 h) Blood ([2]; Blood, 1 h): 20.4 ± 1.06 % ID/g
% ID/g (4 h) Blood ([2]; Blood, 4 h): 9.07 ± 1.42 % ID/g
% ID/g (24 h) Blood ([2]; Blood, 24 h): 0.07 ± 0.02 % ID/g
% ID/g (72 h) Blood ([2]; Blood, 72 h): 0.09 ± 0.07 % ID/g
% ID/g (120 h) Blood ([2]; Blood, 120 h): 0.01 ± 0 % ID/g
% ID/g (1 h) Femur ([2]; Femur, 1 h): 1.84 ± 1.19 % ID/g
% ID/g (4 h) Femur ([2]; Femur, 4 h): 0.99 ± 0.18 % ID/g
% ID/g (24 h) Femur ([2]; Femur, 24 h): 0.29 ± 0.1 % ID/g
% ID/g (72 h) Femur ([2]; Femur, 72 h): 0.73 ± 0.82 % ID/g
% ID/g (120 h) Femur ([2]; Femur, 120 h): 0.13 ± 0.05 % ID/g
% ID/g (1 h) Heart ([2]; Heart, 1 h): 5.76 ± 1.66 % ID/g
% ID/g (4 h) Heart ([2]; Heart, 4 h): 3.15 ± 0.43 % ID/g
% ID/g (24 h) Heart ([2]; Heart, 24 h): 0.31 ± 0.07 % ID/g
% ID/g (72 h) Heart ([2]; Heart, 72 h): 0.89 ± 0.56 % ID/g
% ID/g (120 h) Heart ([2]; Heart, 120 h): 0.13 ± 0.02 % ID/g
% ID/g (1 h) Intestine ([2]; Intestine, 1 h): 2.59 ± 0.76 % ID/g
% ID/g (4 h) Intestine ([2]; Intestine, 4 h): 1.7 ± 0.53 % ID/g
% ID/g (24 h) Intestine ([2]; Intestine, 24 h): 0.7 ± 0.39 % ID/g
% ID/g (72 h) Intestine ([2]; Intestine, 72 h): 1.33 ± 0.88 % ID/g
% ID/g (120 h) Intestine ([2]; Intestine, 120 h): 0.17 ± 0.06 % ID/g
% ID/g (1 h) Kidney ([2]; Kidney, 1 h): 4.34 ± 2.82 % ID/g
% ID/g (4 h) Kidney ([2]; Kidney, 4 h): 3.22 ± 1.54 % ID/g
% ID/g (24 h) Kidney ([2]; Kidney, 24 h): 2.61 ± 0.72 % ID/g
% ID/g (72 h) Kidney ([2]; Kidney, 72 h): 3.55 ± 2.21 % ID/g
% ID/g (120 h) Kidney ([2]; Kidney, 120 h): 0.81 ± 0.23 % ID/g
% ID/g (1 h) Liver ([2]; Liver, 1 h): 5.26 ± 1.02 % ID/g
% ID/g (4 h) Liver ([2]; Liver, 4 h): 4.41 ± 1.88 % ID/g
% ID/g (24 h) Liver ([2]; Liver, 24 h): 2.21 ± 0.36 % ID/g
% ID/g (72 h) Liver ([2]; Liver, 72 h): 4.44 ± 3.4 % ID/g
% ID/g (120 h) Liver ([2]; Liver, 120 h): 0.55 ± 0.3 % ID/g
% ID/g (1 h) Lung ([2]; Lung, 1 h): 9.85 ± 2.58 % ID/g
% ID/g (4 h) Lung ([2]; Lung, 4 h): 3.88 ± 1.04 % ID/g
% ID/g (24 h) Lung ([2]; Lung, 24 h): 0.62 ± 0.32 % ID/g
% ID/g (72 h) Lung ([2]; Lung, 72 h): 0.5 ± 0.19 % ID/g
% ID/g (120 h) Lung ([2]; Lung, 120 h): 0.12 ± 0.1 % ID/g
% ID/g (1 h) Muscle ([2]; Muscle, 1 h): 1.07 ± 0.14 % ID/g
% ID/g (4 h) Muscle ([2]; Muscle, 4 h): 0.66 ± 0.21 % ID/g
% ID/g (24 h) Muscle ([2]; Muscle, 24 h): 0.12 ± 0.04 % ID/g
% ID/g (72 h) Muscle ([2]; Muscle, 72 h): 0.37 ± 0.34 % ID/g
% ID/g (120 h) Muscle ([2]; Muscle, 120 h): 0.06 ± 0.02 % ID/g
% ID/g (1 h) Pancreas ([2]; Pancreas, 1 h): 1.18 ± 0.61 % ID/g
% ID/g (4 h) Pancreas ([2]; Pancreas, 4 h): 1.01 ± 0.71 % ID/g
% ID/g (24 h) Pancreas ([2]; Pancreas, 24 h): 0.15 ± 0.06 % ID/g
% ID/g (72 h) Pancreas ([2]; Pancreas, 72 h): 0.51 ± 0.5 % ID/g
% ID/g (120 h) Pancreas ([2]; Pancreas, 120 h): 0.05 ± 0.02 % ID/g
% ID/g (1 h) Spleen ([2]; Spleen, 1 h): 1.76 ± 0.41 % ID/g
% ID/g (4 h) Spleen ([2]; Spleen, 4 h): 1.22 ± 0.16 % ID/g
% ID/g (24 h) Spleen ([2]; Spleen, 24 h): 0.43 ± 0.09 % ID/g
% ID/g (72 h) Spleen ([2]; Spleen, 72 h): 1.61 ± 1.35 % ID/g
% ID/g (120 h) Spleen ([2]; Spleen, 120 h): 0.8 ± 0.32 % ID/g
% ID/g (1 h) Stomach ([2]; Stomach, 1 h): 1.29 ± 0.31 % ID/g
% ID/g (4 h) Stomach ([2]; Stomach, 4 h): 1.35 ± 0.68 % ID/g
% ID/g (24 h) Stomach ([2]; Stomach, 24 h): 0.29 ± 0.11 % ID/g
% ID/g (72 h) Stomach ([2]; Stomach, 72 h): 0.54 ± 0.53 % ID/g
% ID/g (120 h) Stomach ([2]; Stomach, 120 h): 0.07 ± 0.01 % ID/g
% ID/g (1 h) Tumor ([2]; Tumor, 1 h): 9.74 ± 2.44 % ID/g
% ID/g (4 h) Tumor ([2]; Tumor, 4 h): 20.7 ± 2.21 % ID/g
% ID/g (24 h) Tumor ([2]; Tumor, 24 h): 17.4 ± 4.53 % ID/g
% ID/g (72 h) Tumor ([2]; Tumor, 72 h): 10.02 ± 6.15 % ID/g
% ID/g (120 h) Tumor ([2]; Tumor, 120 h): 6.61 ± 1.12 % ID/g
clearance from other organs or tissues (SPECT/CT) [3]: rapid clearance
retention in tumors (SPECT/CT) [3]: sustained retention in tumors
SMILES: COc1cccc(OC)c1-c1cc(C(=O)NC2(C(=O)O)C3CC4CC(C3)CC2C4)nn1-c1ccc(NC(=O)CCCN(C)CCCN(C)C(=O)CN2CCN(CC(=O)[O-])CCN(CC(=O)[O-])CCN(CC(=O)[O-])CC2)cc1C(C)C.[177Lu+3] (stereo not shown) [^177Lu-I-5]
